Patent US7553506B2, “Herbal compositions for prevention and treatment of rheumatic and inflammatory diseases and method of preparing the same” (Shenzhen Qianrenren Sci. & Tech. Development Co., priority 2004, dated 2009)

What was measured:
[1] = tested on: Outpatients with active rheumatoid arthritis; test: Clinical study of Anti-Rheumatoid Arthritis Capsule (ARC) versus active control (MTX combination); settings: for % of patients with 50% improvement (R50) / number of patients with 50% improvement (R50) / number of patients with 75% improvement (R75) / number of patients with 100% improvement (R100) / % of patients with 75% improvement (R75): 18 patients per group
Protocol: Anti-Rheumatoid Arthritis Capsule (ARC) is a capsule made of the powder form of the herbal composition of the present invention in accordance with the components and method shown in Example 1. To assess the basic efficacy and side effect of ARC, an open, randomized and active controlled clinical trial was carried out.
Outpatients with active rheumatoid arthritis, according to the classification criteria of the American Arthritis College, without other significant medical conditions were recruited. […] Safety and compliance were monitored every 2 weeks with complete outcome evaluation at 4, 8, and 12 weeks.
Thirty-six (36) typical active RA patients were selected and randomly divided into two groups. Observe group, 18 patients, was treated with ARC (4 capsules t.i.d., each capsule is about 0.3 g).
The improvement was denoted as either R50, R75 or R100 reflecting either an improvement to the 50%, 75%, or 100% level in the parameters based on the improvements of signs and symptoms including rest pain assessment, duration of morning stiffness, number of tender joint and the index of tenderness, number of swelling joints and the swelling index, grip strength, joint function, erythrocyte sedimentation rate, C reaction protein, and rheumatoid factor.

[2] = tested on: Outpatients with active rheumatoid arthritis; test: Clinical study of Anti-Rheumatoid Arthritis Liquor (ARL) versus active control (MTX combination); type: in vivo, human; settings: for number of patients with 50% improvement (R50) / number of patients with 75% improvement (R75) / number of patients with 100% improvement (R100) / % of patients with 50% improvement (R50) / % of patients with 75% improvement (R75) / % of patients with 100% improvement (R100): 20 patients per group
Protocol: Outpatients with active rheumatoid arthritis, according to the classification criteria of the American Arthritis College, without other significant medical conditions were recruited. 40 patients were recruited, 7 male and 33 female. Their ages were ranged from 28-67 years old with average of 46.8 years old. The disease duration of the patients ranged from 0.4 to 13 years.
[…] Observe group, 20 patients, was treated with ARL (30 ml/d). It was taken before sleep or equally divided to be taken in the morning and evening.
The outcome measurements for the both groups were divided to signs and symptoms, including: rest pain assessment, duration of morning stiffness, number of tender joint and the index of tenderness, number of swelling joints and the swelling index, grip strength, joint function, erythrocyte sedimentation rate, C reaction protein, and rheumatoid factor. The individual parameter improvement was calculated through the following formula:
The total improvement was used to compare the efficacy between the two groups. In order to accurately reflect the drug efficacy, 50% improvement, 75% improvement, and 100% improvement (R50, R75 and R100) were used as statistical endpoint for efficacy.

[3] = tested on: rheumatoid arthritis; settings: general statement on RA therapy; cited from earlier work
[4] = 12 weeks, listed as active control
[5] = 26 weeks, listed as combination of oral MTX and NSAID
[6] = 52 weeks, listed as combination of oral MTX and NSAID

## CN(Cc1cnc2nc(N)nc(N)c2n1)c1ccc(C(=O)N[C@@H](CCC(=O)O)C(=O)O)cc1 [MTX, Methotrexate]
[1]; 4 weeks
  % of patients with 50% improvement (R50): (11.1) %
  number of patients with 50% improvement (R50): 2
  number of patients with 75% improvement (R75): 0
  number of patients with 100% improvement (R100): 0
[1]; 4 weeks, listed as active control
  % of patients with 50% improvement (R50): 11.1%
[1]; 8 weeks
  % of patients with 50% improvement (R50): (11.1) %
  number of patients with 50% improvement (R50): 2
  number of patients with 75% improvement (R75): 0
  number of patients with 100% improvement (R100): 0
[1]; 8 weeks, listed as active control
  % of patients with 50% improvement (R50): 11.1%
[1]; 12 weeks observation, 18 patients
  patients who complained about stomachalgia: 3 patients
[1]; 12 weeks
  % of patients with 50% improvement (R50): (55.5) %
  % of patients with 75% improvement (R75): (11.1) %
  number of patients with 50% improvement (R50): 10
  number of patients with 75% improvement (R75): 2
[1]; [4]
  % of patients with 50% improvement (R50): 55.5%
  % of patients with 75% improvement (R75): 11.1%
[2]
  time required to reach R50: 8-12 weeks
  time required to reach R75: 20-32 weeks
  time required to reach R100: 52 weeks
[2]; 4 weeks
  number of patients with 50% improvement (R50): 0
  number of patients with 75% improvement (R75): 0
  number of patients with 100% improvement (R100): 0
[2]; 8 weeks
  number of patients with 50% improvement (R50): 0
  number of patients with 75% improvement (R75): 0
  number of patients with 100% improvement (R100): 0
[2]; 12 weeks
  % of patients with 50% improvement (R50): (45) %
  number of patients with 50% improvement (R50): 9
  number of patients with 75% improvement (R75): 0
  number of patients with 100% improvement (R100): 0
[2]; 12 weeks, listed as combination of oral MTX and NSAID
  % of patients with 50% improvement (R50): 45%
[2]; 26 weeks
  % of patients with 50% improvement (R50): (40) %
  % of patients with 75% improvement (R75): (50) %
  number of patients with 50% improvement (R50): 8
  number of patients with 75% improvement (R75): 10
  number of patients with 100% improvement (R100): 0
[2]; [5]
  % of patients with 50% improvement (R50): 40%
  % of patients with 75% improvement (R75): 50%
[2]; 52 weeks
  % of patients with 75% improvement (R75): (75) %
  % of patients with 100% improvement (R100): (25) %
  number of patients with 50% improvement (R50): 0
  number of patients with 75% improvement (R75): 15
  number of patients with 100% improvement (R100): 5
[2]; [6]
  % of patients with 75% improvement (R75): 75%
  % of patients with 100% improvement (R100): 25%
[2]; Table 5, value ± spread
  Time Required for Improvement, R50: 15.2 ± 5.43 week
  Time Required for Improvement, R75: 27.7 ± 10.5 week
  Time Required for Improvement, R100: 47.2 ± 10.7 week
[3]
  time usually required to show some clinical effect: 12-24 weeks
